Data as given in ChEMBL document CHEMBL5233238, “Research progress on sirtuins family members and cell senescence” (2020).

Legend:
Assay type in all cases: functional
Caenorhabditis elegans [1] = assay: Regulation of metabolic activity in […] assessed as increasing in average life span at 25 mol/L relative to control
Caenorhabditis elegans [2] = assay: Regulation of metabolic activity in […] assessed as increasing in average life span at 50 mol/L relative to control
Caenorhabditis elegans [3] = assay: Regulation of metabolic activity in […] assessed as increasing in average life span at 100 mol/L relative to control

Which results are given for CN(C)C(=N)NC(=N)N [METFORMIN]?
Activity (Caenorhabditis elegans [1]): 18%; Activity (Caenorhabditis elegans [2]): 36%; Activity (Caenorhabditis elegans [3]): 3%
